Laboratory results from US20230124862A1, “BISMUTH THIOL COMPOUNDS AND COMPOSITIONS AND METHODS OF TREATING MICROBIAL CO-INFECTIONS” (Microbion Corporation, priority 2020, published 2023).
Values after ≈ are worked out from the molar mass of the structure shown. Values joined by “and” are separate entries in the source; they are usually repeats but may differ in a detail not shown here. Equal entries are not always repeated. Where two headings read alike, the source gives them in different places.

Columns and labels:
[1] = test system: S. aureus; test: Broth microdilution MIC (Example 11); format: cell-based, Staphylococcus aureus; settings: Staphylococcus aureus, ATCC 29213 / MSSA, S. aureus MMX 101 (ATCC 29213), QC, MSSA
[2] = test system: Enterococcus spp.; test: Broth microdilution MIC (Example 11); format: cell-based, E. faecalis, E. faecium
[3] = test system: S. aureus; settings: S. aureus MMX 101 (ATCC 29213); cited from earlier work
[4] = test system: S. pneumoniae; settings: S. pneumoniae MMX 6837 (ATCC 49619); cited from earlier work
[5] = test system: S. pneumoniae; test: Broth microdilution MIC (Example 11); format: cell-based, Streptococcus pneumoniae
[6] = test system: beta-hemolytic streptococci; test: Broth microdilution MIC (Example 11); format: cell-based, S. pyogenes, S. agalactiae
[7] = test system: P. aeruginosa; test: Checkerboard FIC/FICI assay; format: cell-based, Pseudomonas aeruginosa; settings: for FICB / MICB: Meropenem in combination with BisEDT; for MIC: Pseudomonas aeruginosa, Meropenem alone (checkerboard with BisEDT), read-out: Drug B MIC
[8] = test system: Burkholderia cepacia complex; test: Checkerboard FIC/FICI assay; format: cell-based, Burkholderia spp.; settings: for MIC: Meropenem alone, panel with BisEDT, read-out: Drug B MIC
[9] = test system: Enterobacteriaceae; settings: E. coli MMX 102 (ATCC 25922); CLSI QC ranges shown in parenthesis; cited from earlier work
[10] = test system: P. aeruginosa and A. baumannii; settings: P. aeruginosa MMX 103 (ATCC 27853); CLSI QC ranges shown in parenthesis; cited from earlier work
[11] = E. faecalis MMX 8960, VRE, Lev^R Cip^R Ery^R, read-out: MIC
[12] = E. faecalis MMX 8962, VRE, Lev^R Cip^R Ery^R, read-out: MIC
[13] = E. faecium MMX 485, VRE vanA, Lev^R Cip^R Ery^R, read-out: MIC
[14] = E. faecium MMX 752, VRE vanA, Lev^R Cip^R Ery^R, read-out: MIC
[15] = P. aeruginosa 6322, one value per panel row C-G
[16] = P. aeruginosa 7745, by checkerboard
[17] = P. aeruginosa 8798, by checkerboard
[18] = P. aeruginosa 9108, by checkerboard
[19] = B. cepacia 1793, Meropenem in combination with BisEDT, by checkerboard

CC[C@H]1OC(=O)[C@H](C)[C@@H](O[C@H]2C[C@@](C)(OC)[C@@H](O)[C@H](C)O2)[C@H](C)[C@@H](O[C@@H]2O[C@H](C)C[C@H](N(C)C)[C@H]2O)[C@](C)(O)C[C@@H](C)C(=O)[C@H](C)[C@@H](O)[C@]1(C)O [Erythromycin]
MIC ([1]; read-out: MIC): 0.5 µg/mL (≈ 0.681 µM)
MIC [2, 11]: > 64 µg/mL
MIC ([2]; E. faecalis MMX 8961, VRE, Lev^R Cip^R Ery^R, read-out: MIC): > 64 µg/mL
MIC [2, 12]: > 64 µg/mL
MIC [2, 13]: > 64 µg/mL
MIC [2, 14]: > 64 µg/mL
CLSI QC range of MIC [3]: (0.25-1) μg/mL
CLSI QC range of MIC [4]: (0.03-0.12) μg/mL

Penicillin
MIC ([5]; S. pneumoniae MMX 880, Lev^R SXT^R CC^R Ery^R Pen^R): 2 µg/mL
MIC ([5]; S. pneumoniae MMX 937, Mem^R SXT^R CC^R Ery^R Per^R): 4 µg/mL
MIC ([5]; S. pneumoniae MMX 3959, CC^R Ery^R): 0.12 µg/mL
MIC ([5]; S. pneumoniae MMX 5440, Mem^R SXT^R CC^R Ery^R Pen^R): 4 µg/mL
MIC ([5]; S. pneumoniae MMX 5445, Mem^R SXT^R CC^R Ery^R Pen^R): 4 µg/mL
MIC ([5]; S. pneumoniae MMX 6837 (ATCC 49619), QC): 0.25 µg/mL
MIC ([5]; S. pneumoniae MMX 8133, Mem^R SXT^R CC^R Ery^R Pen^R): 4 µg/mL
MIC ([6]; S. agalactiae MMX 3741, ERY^R CC^R): 0.03 µg/mL
MIC ([6]; S. agalactiae MMX 3743, ERY^R CC^R): 0.06 µg/mL
MIC ([6]; S. agalactiae MMX 4077, ERY^R CC^R): 0.06 µg/mL
MIC ([6]; S. agalactiae MMX 4079, ERY^R CC^R Pen^R MEM^R): 2 µg/mL
MIC ([6]; S. agalactiae MMX 4086, ERY^R CC^R): 0.06 µg/mL
MIC ([6]; S. pyogenes MMX 3068, Ery^R): ≤0.008 µg/mL
MIC ([6]; S. pyogenes MMX 3820, ERY^R CLI^R): ≤0.008 µg/mL
MIC ([6]; S. pyogenes MMX 3919, ERY^R): ≤0.008 µg/mL
MIC ([6]; S. pyogenes MMX 3929, ERY^R CC^R): ≤0.008 µg/mL
MIC ([6]; S. pyogenes MMX 5091, ERY^R CC^R): ≤0.008 µg/mL
CLSI QC range of MIC [4]: (0.25-1) μg/mL

C[C@@H](O)[C@H]1C(=O)N2C(C(=O)O)=C(S[C@@H]3CN[C@H](C(=O)N(C)C)C3)[C@H](C)[C@H]12 [Meropenem]
FICB [7, 15]: 1
MICB [7, 15]: 16 µg/mL
FICB [7, 16]: 0.25 and 0.5
MICB [7, 16]: 4 µg/mL and 8 µg/mL
FICB [7, 17]: 1
MICB [7, 17]: 32 µg/mL
FICB [7, 18]: 1
MICB [7, 18]: 0.001 µg/mL
MIC ([7]; P. aeruginosa 6977): 8 µg/mL
MIC ([7]; P. aeruginosa 7745): 16 µg/mL
MIC ([7]; P. aeruginosa 8798): 32 µg/mL
FICB ([8]; B. cenocepacia 548, FIC of Meropenem (Drug B) in combination with BisEDT): 0.5 and 1
MICB ([8]; B. cenocepacia 548, MIC of Meropenem (Drug B) in combination with BisEDT): 2 µg/mL and 4 µg/mL
MIC ([8]; B. cenocepacia 548): 4 µg/mL
FICB ([8]; B. cenocepacia 813, FIC of Meropenem (Drug B) in combination with BisEDT): 0.5 and 1
MICB ([8]; B. cenocepacia 813, MIC of Meropenem (Drug B) in combination with BisEDT): 1 µg/mL and 2 µg/mL
MIC ([8]; B. cenocepacia 813): 2 µg/mL
FICB ([8]; B. cepacia 546, Meropenem in combination with BisEDT, by checkerboard): 1 and 2
FICB [8, 19]: 2 and 4
MICB [8, 19]: 8 µg/mL and 16 µg/mL
FICB ([8]; B. multivorans 1795, FIC of Meropenem (Drug B) in combination with BisEDT): 1
MICB ([8]; B. multivorans 1795, MIC of Meropenem (Drug B) in combination with BisEDT): 4 µg/mL
MIC ([1]; read-out: MIC): 0.06 µg/mL (≈ 0.156 µM)
MIC [2, 11]: 8 µg/mL (≈ 20.9 µM)
MIC [2, 12]: 2 µg/mL (≈ 5.22 µM)
MIC [2, 13]: > 64 µg/mL
MIC [2, 14]: > 64 µg/mL
MIC, CLSI QC range [9]: (0.008-0.06) μg/mL
MIC, CLSI QC range [10]: (0.25-1) μg/mL
CLSI QC range of MIC [3]: (0.03-0.12) μg/mL
CLSI QC range of MIC [4]: (0.06-0.25) μg/mL

CN[C@H](CC(C)C)C(=O)N[C@H]1C(=O)N[C@@H](CC(N)=O)C(=O)N[C@H]2C(=O)N[C@H]3C(=O)N[C@H](C(=O)N[C@H](C(=O)O)c4cc(O)cc(O)c4-c4cc3ccc4O)[C@H](O)c3ccc(c(Cl)c3)Oc3cc2cc(c3O[C@@H]2O[C@H](CO)[C@@H](O)[C@H](O)[C@H]2O[C@H]2C[C@](C)(N)[C@H](O)[C@H](C)O2)Oc2ccc(cc2Cl)[C@H]1O [vancomycin, reference compound]
MIC [1]: 1 µg/mL (≈ 0.69 µM)
MIC [2]: > 64 µg/mL
MIC ([2]; E. faecalis MMX 8960, VRE, Lev^R Cip^R Ery^R): >64 µg/mL
MIC ([2]; E. faecalis MMX 8962, VRE, Lev^R Cip^R Ery^R): >64 µg/mL
MIC ([2]; E. faecium MMX 485, VRE vanA, Lev^R Cip^R Ery^R): >64 µg/mL
MIC ([2]; E. faecium MMX 752, VRE vanA, Lev^R Cip^R Ery^R): >64 µg/mL
MIC ([6]; Streptococcus pyogenes, S. pyogenes MMX 3820, ERY^R CLI^R): 0.5 µg/mL (≈ 0.345 µM)
MIC ([6]; Streptococcus pyogenes, S. pyogenes MMX 3919, ERY^R): 0.5 µg/mL (≈ 0.345 µM)
MIC ([6]; Streptococcus pyogenes, S. pyogenes MMX 3929, ERY^R CC^R): 0.5 µg/mL (≈ 0.345 µM)
MIC ([6]; Streptococcus pyogenes, S. pyogenes MMX 5091, ERY^R CC^R): 0.5 µg/mL (≈ 0.345 µM)
CLSI QC range of MIC [3]: (0.5-2) μg/mL
CLSI QC range of MIC [4]: (0.12-0.5) μg/mL
